Assay results reported in patent publication US10485235B2, “Aryloxypyrimidinyl ethers as herbicides” (FMC Corporation, priority 2015, dated 2019).

Legend:
Assay type in all cases: in vivo
[1] = system: barnyardgrass (Echinochloa crus-galli); assay: Test A preemergence, barnyardgrass; conditions: Preemergence, 0 to 100 scale (0 no effect, 100 complete control)
Source text: (§1) Seeds of plant species selected from barnyardgrass (Echinochloa crus-galli), kochia (Kochia scoparia), ragweed (common ragweed, Ambrosia elatior), ryegrass, Italian (Italian ryegrass, Lolium multiflorum), foxtail, giant (giant foxtail, Setaria faberii), and pigweed (Amaranthus retroflexus), were planted into a blend of loam soil and sand and treated preemergence with a directed soil spray using test chemicals formulated in a non-phytotoxic solvent mixture which included a surfactant.
(§2) At the same time, plants selected from these weed species and also wheat (Triticum aestivum), corn (Zea mays), blackgrass (Alopecurus myosuroides), and galium (catchweed bedstraw, Galium aparine), were planted in pots containing the same blend of loam soil and sand and treated with postemergence applications of test chemicals formulated in the same manner. Plants ranged in height from 2 to 10 cm and were in the one- to two-leaf stage for the postemergence treatment. Treated plants and untreated controls were maintained in a greenhouse for approximately 10 days, after which time all treated plants were compared to untreated controls and visually evaluated for injury. Plant response ratings, summarized in Table A, are based on a 0 to 100 scale where 0 is no effect and 100 is complete control. A dash (—) response means no test result.

[2] = system: kochia (Kochia scoparia); assay: Test A preemergence, kochia; conditions: Preemergence, 0 to 100 scale (0 no effect, 100 complete control)
Source text: as §1, §2

[3] = system: ragweed (common ragweed, Ambrosia elatior); assay: Test A preemergence, ragweed; conditions: Preemergence, 0 to 100 scale (0 no effect, 100 complete control)
Source text: as §1, §2

[4] = system: ryegrass, Italian (Italian ryegrass, Lolium multiflorum); assay: Test A preemergence, Italian ryegrass; conditions: Preemergence, 0 to 100 scale (0 no effect, 100 complete control)
Source text: as §1, §2

[5] = system: foxtail, giant (giant foxtail, Setaria faberii); assay: Test A preemergence, giant foxtail; conditions: Preemergence, 0 to 100 scale (0 no effect, 100 complete control)
Source text: as §1, §2

[6] = system: pigweed (Amaranthus retroflexus); assay: Test A preemergence, pigweed; conditions: Preemergence, 0 to 100 scale (0 no effect, 100 complete control)
Source text: as §1, §2

[7] = system: barnyardgrass (Echinochloa crus-galli); assay: Test A postemergence, barnyardgrass; conditions: postemergence, 0 to 100 scale, 0 is no effect, 100 is complete control, approximately 10 days
Source text: as §1, §2

[8] = system: kochia (Kochia scoparia); assay: Test A postemergence, kochia; conditions: postemergence, 0 to 100 scale, 0 is no effect, 100 is complete control, approximately 10 days
Source text: as §1, §2

[9] = system: ragweed (common ragweed, Ambrosia elatior); assay: Test A postemergence, ragweed; conditions: postemergence, 0 to 100 scale, 0 is no effect, 100 is complete control, approximately 10 days
Source text: as §1, §2

[10] = system: ryegrass, Italian (Italian ryegrass, Lolium multiflorum); assay: Test A postemergence, Italian ryegrass; conditions: postemergence, 0 to 100 scale, 0 is no effect, 100 is complete control, approximately 10 days
Source text: as §1, §2

[11] = system: foxtail, giant (giant foxtail, Setaria faberii); assay: Test A postemergence, giant foxtail; conditions: postemergence, 0 to 100 scale, 0 is no effect, 100 is complete control, approximately 10 days
Source text: as §1, §2

[12] = system: pigweed (Amaranthus retroflexus); assay: Test A postemergence, pigweed; conditions: postemergence, 0 to 100 scale, 0 is no effect, 100 is complete control, approximately 10 days
Source text: as §1, §2

[13] = system: wheat (Triticum aestivum); assay: Test A postemergence, wheat; conditions: postemergence, 0 to 100 scale, 0 is no effect, 100 is complete control, approximately 10 days
Source text: as §1, §2

[14] = system: corn (Zea mays); assay: Test A postemergence, corn; conditions: postemergence, 0 to 100 scale, 0 is no effect, 100 is complete control, approximately 10 days
Source text: as §1, §2

[15] = system: blackgrass (Alopecurus myosuroides); assay: Test A postemergence, blackgrass; conditions: postemergence, 0 to 100 scale, 0 is no effect, 100 is complete control, approximately 10 days
Source text: as §1, §2

[16] = system: galium (catchweed bedstraw, Galium aparine); assay: Test A postemergence, galium; conditions: postemergence, 0 to 100 scale, 0 is no effect, 100 is complete control, approximately 10 days
Source text: as §1, §2

| Structure (SMILES) | Plant response rating, Barnyardgrass ([1]; 31 g ai/ha) | Plant response rating, Barnyardgrass ([1]; 125 g ai/ha) | Plant response rating, Kochia ([2]; 31 g ai/ha) | Plant response rating, Kochia ([2]; 125 g ai/ha) | Plant response rating, Ragweed ([3]; 31 g ai/ha) | Plant response rating, Ragweed ([3]; 125 g ai/ha) | Plant response rating, Ryegrass, Italian ([4]; 31 g ai/ha) | Plant response rating, Ryegrass, Italian ([4]; 125 g ai/ha) | Plant response rating, Foxtail, Giant ([5]; 31 g ai/ha) | Plant response rating, Foxtail, Giant ([5]; 125 g ai/ha) | Plant response rating, Pigweed ([6]; 31 g ai/ha) | Plant response rating, Pigweed ([6]; 125 g ai/ha) | Plant response rating, Barnyardgrass ([7]; 31 g ai/ha) | Plant response rating, Barnyardgrass ([7]; 125 g ai/ha) | Plant response rating, Kochia ([8]; 31 g ai/ha) | Plant response rating, Kochia ([8]; 125 g ai/ha) | Plant response rating, Ragweed ([9]; 31 g ai/ha) | Plant response rating, Ragweed ([9]; 125 g ai/ha) | Plant response rating, Ryegrass, Italian ([10]; 31 g ai/ha) | Plant response rating, Ryegrass, Italian ([10]; 125 g ai/ha) | further results |
| --- | --- | --- | --- | --- | --- | --- | --- | --- | --- | --- | --- | --- | --- | --- | --- | --- | --- | --- | --- | --- | --- |
| N#Cc1cccc(Oc2ncc(Cl)cn2)c1OC/C=C/Cl [Compound 7] | 20 | 100 | 70 | 100 | 0 | 0 | 0 | 10 | 60 | 100 | 60 | 100 | 10 | 90 | 90 | 100 | 0 | 10 | 10 | 50 | Plant response rating, Foxtail, Giant ([11]; 31 g ai/ha): 10; Plant response rating, Foxtail, Giant ([11]; 125 g ai/ha): 90; Plant response rating, Pigweed ([12]; 31 g ai/ha): 60; Plant response rating, Pigweed ([12]; 125 g ai/ha): 90; Plant response rating, Wheat ([13]; 31 g ai/ha): 0; Plant response rating, Wheat ([13]; 125 g ai/ha): 10; Plant response rating, Corn ([14]; 31 g ai/ha): 10; Plant response rating, Corn ([14]; 125 g ai/ha): 20; Plant response rating, Blackgrass ([15]; 31 g ai/ha): 10; Plant response rating, Blackgrass ([15]; 125 g ai/ha): 30; Plant response rating, Galium ([16]; 31 g ai/ha): 50; Plant response rating, Galium ([16]; 125 g ai/ha): 80 |
| N#Cc1cccc(Oc2ncc(Cl)cn2)c1OCCCF [Compound 15] | 0 | 20 | 50 | 100 | 0 | 0 | 0 | 10 | 30 | 90 | 100 | 100 | 60 | 90 | 50 | 80 | 0 | 20 | 0 | 10 | Plant response rating, Foxtail, Giant ([11]; 31 g ai/ha): 10; Plant response rating, Foxtail, Giant ([11]; 125 g ai/ha): 30; Plant response rating, Pigweed ([12]; 31 g ai/ha): 60; Plant response rating, Pigweed ([12]; 125 g ai/ha): 70; Plant response rating, Wheat ([13]; 31 g ai/ha): 0; Plant response rating, Wheat ([13]; 125 g ai/ha): 0; Plant response rating, Corn ([14]; 31 g ai/ha): 10; Plant response rating, Corn ([14]; 125 g ai/ha): 10; Plant response rating, Blackgrass ([15]; 31 g ai/ha): 0; Plant response rating, Blackgrass ([15]; 125 g ai/ha): 10; Plant response rating, Galium ([16]; 31 g ai/ha): 20; Plant response rating, Galium ([16]; 125 g ai/ha): 50 |
| N#Cc1cccc(Oc2ncc(F)cn2)c1OC/C=C/Cl [Compound 36] | 30 | 80 | 10 | 100 | 0 | 0 | 0 | 0 | 30 | 90 | 100 | 100 | 0 | 70 | 80 | 90 | 20 | 40 | 0 | 20 | Plant response rating, Foxtail, Giant ([11]; 31 g ai/ha): 0; Plant response rating, Foxtail, Giant ([11]; 125 g ai/ha): 50; Plant response rating, Pigweed ([12]; 31 g ai/ha): 50; Plant response rating, Pigweed ([12]; 125 g ai/ha): 50; Plant response rating, Wheat ([13]; 31 g ai/ha): 0; Plant response rating, Wheat ([13]; 125 g ai/ha): 0; Plant response rating, Corn ([14]; 31 g ai/ha): 0; Plant response rating, Corn ([14]; 125 g ai/ha): 20; Plant response rating, Blackgrass ([15]; 31 g ai/ha): 10; Plant response rating, Blackgrass ([15]; 125 g ai/ha): 50; Plant response rating, Galium ([16]; 31 g ai/ha): 40; Plant response rating, Galium ([16]; 125 g ai/ha): 50 |
| N#CCCCOc1c(C#N)cccc1Oc1ncc(F)cn1 [Compound 37] | 0 | 20 | 30 | 80 | 30 | 70 | 0 | 0 | 20 | 50 | 100 | 100 | 10 | 20 | 50 | 80 | 30 | 50 | 0 | 0 | Plant response rating, Foxtail, Giant ([11]; 31 g ai/ha): 0; Plant response rating, Foxtail, Giant ([11]; 125 g ai/ha): 10; Plant response rating, Pigweed ([12]; 31 g ai/ha): 60; Plant response rating, Pigweed ([12]; 125 g ai/ha): 70; Plant response rating, Wheat ([13]; 31 g ai/ha): 0; Plant response rating, Wheat ([13]; 125 g ai/ha): 0; Plant response rating, Corn ([14]; 31 g ai/ha): 0; Plant response rating, Corn ([14]; 125 g ai/ha): 20; Plant response rating, Blackgrass ([15]; 31 g ai/ha): 0; Plant response rating, Blackgrass ([15]; 125 g ai/ha): 10; Plant response rating, Galium ([16]; 31 g ai/ha): 40; Plant response rating, Galium ([16]; 125 g ai/ha): 60 |
